Results: patent publication US4855290A (priority 1985, dated 1989)
“And” between values parts separate entries of the source, which are not always exact repeats. Equal values may be shown once. “Also recorded” adds a separate entry of the source. Read-outs that look alike come from different tables or passages of the source.

Columns and labels:
Guinea-pig ileum [1] = test: Guinea-pig ileum induced contractions; conditions: for Type of activity: guinea-pig ileum; for IC50: inhibiting acetylcholine-induced contractions of the ileum
Excerpt: Guinea-pig ileum induced contractions
*This dose is the IC50 for inhibiting acetylcholineinduced
contractions of the ileum.

Guinea-pig ileum [2] = test: Guinea-pig ileum induced contractions; conditions: ileum contraction
[3] = Signs observed in rats after oral dose of 100 mg./kg.; type: in vivo; conditions: 100 mg./kg. oral
[4] = biological target: central muscarinic receptors (M1) (Rattus norvegicus, UniProt P08482); test: biochemical; type: binding; parameters: IC50^1 :IC50^2: unit not given beside the values
in vivo [5] = conditions: mouse, po
in vivo [6] = conditions: mouse, iv
[7] = not given; remark: listed apart in the source
[8] = biological target: central muscarinic receptors (M1 and M2); type: binding, rat
[9] = Hypothermia-inducing activity in rats; conditions: AF102B at 80 mg./kg. p.o. and 60 mg./kg. i.p., oxotremorine 3.2 mg./kg. p.o. or 1.2 mg./kg. i.p.
[10] = LD50 of physostigmine (relative toxicity in rats); conditions: rat, in vivo, ip
[11] = Morris Swimming Maze in AF64A- and CSF-injected rats; type: in vivo, male Sprague Dawley rats; conditions: AF102B 1 mg./kg., ip, physostigmine 0.1 mg./kg.
Procedure: 38 male Sprague Dawley rats (raised by Charles River) 5-6 months old with an average weight of 500 g. were used. The rats were housed in groups of 5 and were given free access to food and water. Testing was carried out in a round white metal tub 1.4 m. diameter and 0.4 m. deep. The tub was filled with water, made opaque by milk powder to the level of 18 cm. A platform of 12 cm. diameter and at a height of 16 cm. was placed in the tub 2 cm. below water level. The platform was covered with gauze to prevent the animal from slipping back into the water after reaching the platform.
Prior to testing, the rat was placed on the platform for 120 secs., placed gently into the water, facing the wall of the pool, at one of four starting locations (north, south, east or west) around the pool's perimeter. Within each block of four trials, each rat was started at each of the four starting locations, with the sequence of starting locations randomly selected. Testing was carried out on 2 consecutive days with each rat submitted daily to eight trials. During trials 1-12 the platform was located in the center of the south-east quadrant and during trials 13-16 the platform was transferred to the center of the north-west quadrant. If in a particular trial the rat found the platform, it was permitted to remain on it for 60 secs. before starting the next trial. […] The latency to find the platform was measured.
For drug testing, rats were injected with AF64A or CSF (3 nmole/2 ul/side) as described in Experiment 2, above. The rats were subjected first to a step-through learning procedure (see Experiment 1, above) and were 3-3.5 months after injection when tested in the water maze. The rats were divided into 4 groups; 18 CSF-injected rats were treated either with physostigmine (0.1 mg./kg. ip) (10 rats) or with saline (8 rats). 20 AF64A-injected rats were divided similarly. The rats were injected with physostigmine immediately before testing on each day.
Forty male Sprague-Dawley rats (obtained from Charles River Breeding Laboratories U.K.), 5-6 months old, weighing 450-580 g. during the experiment served as subjects. Rats were housed in groups of 5 and were given free access to food and water. 2.5-3.5 months before behavioral testing, rats were injected with AF64A (3 nmole/2 ul/side) (20 rats-group 1) or CSF (20 rats-group 2) as described in the surgery procedure.
Each of the injected groups was randomly subdivided into two equal size treatment groups.

[12] = parameters: species or system Male Sprague-Dawley rats; conditions: rat, in vivo

central muscarinic receptors (M1), sequence (P08482 whole entry): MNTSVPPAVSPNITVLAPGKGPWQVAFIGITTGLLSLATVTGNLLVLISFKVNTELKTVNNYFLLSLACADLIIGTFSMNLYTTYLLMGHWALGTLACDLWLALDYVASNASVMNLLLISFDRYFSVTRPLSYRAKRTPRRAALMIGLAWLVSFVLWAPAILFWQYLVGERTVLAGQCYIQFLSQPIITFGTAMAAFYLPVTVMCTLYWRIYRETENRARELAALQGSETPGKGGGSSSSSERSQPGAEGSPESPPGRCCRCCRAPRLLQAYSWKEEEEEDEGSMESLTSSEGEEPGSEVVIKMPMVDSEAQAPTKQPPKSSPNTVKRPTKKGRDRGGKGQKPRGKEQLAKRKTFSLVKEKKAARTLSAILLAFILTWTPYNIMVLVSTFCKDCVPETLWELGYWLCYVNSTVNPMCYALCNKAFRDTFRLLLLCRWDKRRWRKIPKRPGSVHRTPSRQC

C[C@@H]1O[C@]2(CS1)CN1CCC2CC1 (relative stereo) [AF102A]
muscarinic agonist activity (TABLES 1 and 2) (Guinea-pig ileum [1]; binding and ileum): almost one order of magnitude less active
Type of activity (Guinea-pig ileum [1]): agonist
EC50 (Guinea-pig ileum [2]): > 10000 nM
Mortality (mice, 36.0 mg./kg. i.v.): 2/6
Mortality (mice, 37.9 mg./kg. i.v.): 3/6
Mortality (mice, 40.0 mg./kg. i.v.): 2/6
Mortality (mice, 42.5 mg./kg. i.v.): 4/6
Mortality (mice, 45.0 mg./kg. i.v.): 6/6
time of death after intravenous injection (mice, approximate LD50 doses, iv): about 30 secs.
onset of severe tremors after intravenous administration (mouse, in vivo, iv): 10 s
Signs observed in rats [3]: spontaneous motor activity was slightly reduced; also recorded: mydriasis, with pupillary size being about three times that seen in controls; also recorded: sudden onset of a brief clonic convulsive seizure which 5 mins. later changed into periodic head twitching and tremors; also recorded: animals appeared somnolent, accompanied by partial loss of righting reflex, dyspnoeic and cyanotic, with very slight salivation and lachrymation; also recorded: full recovery occurred after several hours
mortality in rats [3]: one animal, out of the group of three, which was found dead
time found dead ([3]; post-administration): 40 min
IC50 [4]: 30000 nM
IC50^1 :IC50^2 ([4]; PNZ:QNB displacement ratio): 0.43
LD50 (in vivo [5]): 102 mg/kg
LD50 (in vivo [6]): 40.4 mg/kg
Mortality ([7]; mice, 78 mg./kg. per os): 0/5
Mortality ([7]; mice, 90 mg./kg. per os): 2/5
Mortality ([7]; mice, 104 mg./kg. per os): 2/5
Mortality ([7]; mice, 120 mg./kg. per os): 4/5
Mortality ([7]; mice, 139 mg./kg. per os): 5/5
Mortality ([7]; mice, 160 mg./kg. per os): 5/5
time of death after oral administration ([7]; mice, approximate LD50 doses, oral): 10 to 15 min
absorption by the enteric route ([7]; mice, inferred from i.v./oral LD50 ratio): efficient, rapid and apparently unaltered absorption
effects considered characteristic of parasympatho- or cholinomimetic activity ([7]; mouse, in vivo): none of the test animals exhibited effects considered characteristic of parasympatho- or cholinomimetic activity
onset of severe tremors after oral administration ([7]; mouse, in vivo, po): 2 to 3 min
IC50 ([8]; read-out: IC50^2 for displacement of [^3 H]-QNB): 70000 nM

C[C@@H]1OCC2(CN3CCC2CC3)O1 (stereo in doubt) [AF30, cis-2-methylspiro(1,3-dioxolane-4,3')quinuclidine, reference compound]
Type of activity (Guinea-pig ileum [1]): agonist
EC50 (Guinea-pig ileum [2]): 4000 nM
effects considered characteristic of parasympatho- or cholinomimetic activity ([7]; mice, oral or iv, tremors, salivation, lachrymation, diarrhoea, miosis): did exhibit such side effects

c1ccc(C(c2ccccc2)C2OC3(CS2)CN2CCC3CC2)cc1 (stereo not drawn) [(Ib), 2-diphenylmethylspiro(1,3-oxathiolane-5,3')quinuclidine]
Type of activity (Guinea-pig ileum [1]): antagonist
IC50 (Guinea-pig ileum [1]): 20 nM

CC1(c2ccccc2)OC2(CS1)CN1CCC2CC1 (stereo not drawn) [(Ic), 2-methyl-2-phenylspiro(1,3-oxathiolane-5,3')quinuclidine]
Type of activity (Guinea-pig ileum [1]): antagonist
IC50 (Guinea-pig ileum [1]): 2000 nM

O=C1CCCN1CC#CCN1CCCC1 [oxotremorine, reference compound]
cholinomimetic manifestation [9]: full cholinomimetic syndrome associated with tonic-clonic convulsions
EC50 [4]: 800 nM
IC50 [4]: 800 nM
IC50^1 :IC50^2 [4]: 0.27
EC50 ([8]; summary table, read-out: EC50, [^3 H]--QNB-binding): 3000 nM

CNC(=O)Oc1ccc2c(c1)[C@]1(C)CCN(C)[C@@H]1N2C [physostigmine, reference compound]
LD50 [10]: 1 to 2 mg/kg
effect in Morris Swimming Maze [11]: negative effect; also recorded: inhibited the decrease of the escape-latency curve
effect in Morris Swimming Maze ([11]; listed as Physostigmine): worsens; also recorded: apparently impaired the performance of both AF64A and CSF-injected groups
Initial-test latency [12]: 25.50 ± 5.68 s and 29.70 ± 7.93 s
reversal of AF64A-induced memory impairments in passive avoidance [12]: could be reversed
Retention-test latency ([12]; ip): 458.90 ± 63.33 s and 576.10 ± 22.69 s
Therapeutic index ([12]; ip): 5-17 and 10-17
retention of passive avoidance (statistics) ([12]; ip): significantly longer, F(1,36)=5.91, p=0.05; also recorded: significantly improved; also recorded: the retention of the CSF-injected group was not affected
